Experimental data reported in PubChem BioAssay (NCI).
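Test compounds were applied to cells in 96-well plates for 48 hours at 5 doses. TGI: total growth inhibition.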 Where a SMILES comes first, the peptide text is derived from it. [ ]: non-standard residue; d: D form. pGlu = O=C1CC[CH](C(=O)O)N1; Thz = O=C(O)[CH]1CSCN1

What was measured:
Assay in all cases: NCI anticancer screen, dose series, 48 h
[1] = test system: SF-268 CNS
[2] = test system: SR leukemia
[3] = test system: MOLT-4 leukemia
[4] = test system: SNB-75 CNS
[5] = test system: NCI-H522 lung
[6] = test system: ACHN renal
[7] = test system: CAKI-1 renal
[8] = test system: MALME-3M melanoma
[9] = test system: T-47D breast
[10] = test system: MDA-MB-231 breast
[11] = test system: HOP-92 NSCLC
[12] = test system: 786-0 renal

Compound | TGI [1] [µM] | TGI [2] [µM] | TGI [3] [µM] | TGI [4] [µM] | TGI [5] [µM] | TGI [6] [µM] | TGI [7] [µM] | TGI [8] [µM] | TGI [9] [µM] | TGI [10] [µM] | TGI [11] [µM] | TGI [12] [µM]
C=C(/C=C/C=C(\C)CCC=C(C)C)[C@@H]1CC[C@]2([C@H](CCCO)/C(=C(/C)C=O)CC[C@]2(C)O)[C@@H]1O | 41.8 | 40.9 | 29.3 | 99.4 | 33 | > 100 | 60.9 | 29.8 | – | – | – | –
COc1c2c(c3c(c1OC)c(=O)c1ccccc1n3C)OCO2 | > 100 | > 100 | > 100 | > 100 | > 100 | > 100 | > 100 | – | > 100 | > 100 | > 100 | > 100
O=C(OC1=CCN(Br)C1=O)C1=C(O)C(=O)N(Br)C1 | 67.3 | 52.3 | 87.7 | 61.3 | 31.4 | > 100 | > 100 | > 100 | 45.2 | 86.3 | – | 30.4
CCn1c(SCC(=O)N/N=C2\SCC(=O)N2c2ccc(C)cc2)nc2ccccc2c1=O | 47.7 | 47.2 | > 100 | 36.6 | 62.1 | 34.2 | 33.2 | 45.6 | 54.9 | 36.3 | – | 35
COc1ccc(C2SCC(=O)N2c2ccc(-n3c(-c4ccccc4)nc4ccccc4c3=O)cc2)cc1 (centres undefined) | > 100 | > 100 | > 100 | 79.3 | > 100 | > 100 | > 100 | – | > 100 | > 100 | > 100 | > 100
O=C1CCC(C(=O)N2CSCC2C(=O)O)N1 (centres undefined) ([pGlu]-[Thz]-OH; configuration not given here) | > 100 | > 100 | > 100 | > 100 | > 100 | > 100 | > 100 | > 100 | > 100 | > 100 | – | > 100
Cc1c(NC(=S)Nc2ccc([N+](=O)[O-])cc2)c(=O)n(-c2ccccc2)n1C | > 100 | > 100 | > 100 | > 100 | > 100 | > 100 | > 100 | > 100 | – | > 100 | > 100 | > 100
C=C1C(C(=O)OC)[C@H]1C(=O)OC (some centres undefined) | > 100 | > 100 | > 100 | > 100 | > 100 | > 100 | > 100 | – | > 100 | > 100 | > 100 | > 100
COC(=O)Nc1nc2ccc(NS(=O)(=O)c3cccs3)cc2[nH]1 | > 100 | – | 77.4 | 67.8 | 29.9 | > 100 | > 100 | 54.7 | 85.3 | > 100 | 70.4 | > 100
O=C1c2ccccc2N(O)C1(c1ccccc1)C1CCCC=C1N1CCOCC1 (centres undefined) | > 100 | > 100 | > 100 | > 100 | 73 | > 100 | > 100 | – | – | – | – | –
Cc1cn(C2CC(n3cc(Cn4ccc(=O)[nH]c4=O)nn3)C(CO)O2)c(=O)[nH]c1=O (centres undefined) | > 100 | – | > 100 | > 100 | – | > 100 | > 100 | – | > 100 | > 100 | > 100 | –
CCCCCCN(CCCCCC)CCC(=O)c1ccc2cc(Br)c3ccccc3c2c1 | > 100 | 14.3 | – | – | 87.1 | > 100 | > 100 | > 100 | 60.5 | 67.4 | 64.9 | > 100
S=P1(Sc2ccccc2)Oc2ccc3ccccc3c2-c2c(ccc3ccccc23)O1 | > 100 | – | > 100 | > 100 | > 100 | – | > 100 | > 100 | – | – | > 100 | –
COc1ccc(C2CC(c3c(O)ccc4ccccc34)=NN2)cc1OC (centres undefined) | 11.5 | – | 5.44 | 12.2 | 8.58 | 4.82 | 58.4 | 16.3 | 58.2 | 53.4 | 24.7 | –
CC(C)(C)c1ccc2c(c1)OP1(Oc3c(Cl)cc(Cl)c4cccnc34)(O2)Oc2ccc(C(C)(C)C)cc2O1 | 24.7 | – | 18.7 | 32.2 | 8.45 | – | 9.58 | 24.9 | – | – | – | –
CCOC(=O)C12CCC(=O)N1N(C)c1ncccc1N2 (centres undefined) | > 100 | > 100 | > 100 | > 100 | > 100 | > 100 | > 100 | – | > 100 | > 100 | – | > 100
CCCCSC1=N/C(=C\c2ccccc2O)C(=O)N1 | > 100 | – | > 100 | > 100 | > 100 | > 100 | > 100 | > 100 | > 100 | > 100 | > 100 | > 100
CN(O)C(=O)CCC(NC(=O)CCC(N)C(=O)O)C(=O)NCC(=O)O (centres undefined) | > 100 | – | > 100 | > 100 | > 100 | > 100 | > 100 | – | > 100 | > 100 | > 100 | > 100
O=P1(c2ccccc2)C(c2ccccc2)CCC1c1ccccc1 (centres undefined) | > 100 | – | > 100 | > 100 | > 100 | – | 73.9 | – | – | > 100 | > 100 | > 100
COc1ccc(CCN2CCN(CCCc3ccccc3)CC2)cc1 | > 100 | > 100 | > 100 | – | > 100 | > 100 | > 100 | > 100 | > 100 | > 100 | – | > 100
CCOC(=O)C(NC(=O)c1cccc(Cl)c1)(Nc1ccc(S(=O)(=O)Nc2cc(C)on2)cc1)C(F)(F)F (centres undefined) | > 100 | – | > 100 | > 100 | > 100 | > 100 | > 100 | > 100 | > 100 | > 100 | > 100 | > 100
